Measured values published in ChEMBL document CHEMBL1795248, “N,N'-Dialkylaminoalkylcarbonyl (DAAC) prodrugs and aminoalkylcarbonyl (AAC) prodrugs of 4-hydroxyacetanilide and naltrexone with improved skin permeation properties” (Bioorg Med Chem Lett, 2011).

Experiment: Chemical stability of the compound assessed as half life in phosphate buffer at pH 6.0
Type: physicochemical

SMILES	half-life
CC(=O)Nc1ccc(OC(=O)[C@@H]2CCCN2)cc1.Cl [ACETAMINOPHEN PROLINATE HYDROCHLORIDE]	14.9 min
CC(C)[C@H](N)C(=O)Oc1ccc2c3c1O[C@H]1C(=O)CC[C@@]4(O)[C@@H](C2)N(CC2CC2)CC[C@]314.O=C(O)C(F)(F)F	31.8 min
CCN(CC)CCC(=O)Oc1ccc(NC(C)=O)cc1.Cl	79.3 min
CC(=O)Nc1ccc(OC(=O)CCN(C)C)cc1.Cl	113 min
CC(=O)Nc1ccc(OC(=O)CN(C)C)cc1.Cl	76.9 min
CC(=O)Nc1ccc(OC(=O)CCN2CCCCC2)cc1.Cl	79.7 min
CC(=O)Nc1ccc(OC(=O)[C@@H](N)C(C)C)cc1.Cl [ACETAMINOPHEN VALINATE HYDROCHLORIDE]	91.4 min
CCN(CC)CC(=O)Oc1ccc(NC(C)=O)cc1.Cl	106 min
CC(=O)Nc1ccc(OC(=O)[C@H](C)N)cc1.Cl [ACETAMINOPHEN ALANINATE HYDROCHLORIDE]	32.3 min
